Patent US20230026232A1, “AHR INHIBITORS AND USES THEREOF” (Ikena Oncology, Inc., priority 2019, published 2023)
pIC50: −log10 of the molar value.

What was measured:
CT26.WT = CT26.WT syngeneic colorectal cancer model, tumor growth, survival and re-challenge; type: in vivo, Balb/cJ mice
Description: The effect of single agent Compound A, and Compound A in combination with anti-PD-1 antibody (BioXcell RMP1-14) on TGI and tumor survival was evaluated in the CT26.WT syngeneic model of colorectal cancer. Balb/cJ female mice were inoculated subcutaneously with tumor cells and 4 days after inoculation, Compound A (10 mg/kg or 25 mg/kg) or Vehicle was administered orally QD for a total of 53 doses. Concurrently, anti-PD-1 antibody (10 mg/kg) was administered IP twice a week for a total of 5 doses.
At ≥95 days after the appearance of CRs in mice treated with the combination of Compound A and anti-PD-1 antibody, the responder animals were re-challenged with CT26.WT cells. Five naïve mice were also injected with CT26.WT cells as a positive control for tumor formation.

[1] = Intrinsic dissolution in 0.5% Tween 80; type: physicochemical; conditions: 0.5% Tween 80, 100 rpm, 37° C.
Description: Milled and as-received API samples were weighed and compressed into a compact using a hydraulic press at 3,000 psi for 60 seconds. Compacts were mounted on intrinsic dissolution apparatus and dissolution study was conducted using USP dissolution apparatus in 250 mL of 0.5% Tween 80 solution at 100 rpm at 37° C. in duplicate. Aliquots (1.0 mL) of dissolution media are taken at selected time-points from each dissolution vessel at 5 minute intervals from 5 to 40 minutes. Each sample was centrifuged at 14,000 rpm for 3 minutes and the supernatant was samples and diluted with diluent for HPLC analysis (Table 7). The retention time of Compound A is about 1.5 minutes.
The Intrinsic dissolution performance of the jet-milled API vs. as received API was conducted to observe any increase in dissolution by particle size reduction. FIG. 8 and Table 15 below show the intrinsic dissolution results.

AHR [2] = target: T1, AHR (Homo sapiens, UniProt P35869); experiment: Phase 1 study: pharmacodynamic modulation of AHR target genes in a whole blood assay; type: in vivo; design: endogenous in cells; conditions: all subjects in the 200 mg, 400 mg, and 800 mg cohorts
T1 sequence (P35869 11-848): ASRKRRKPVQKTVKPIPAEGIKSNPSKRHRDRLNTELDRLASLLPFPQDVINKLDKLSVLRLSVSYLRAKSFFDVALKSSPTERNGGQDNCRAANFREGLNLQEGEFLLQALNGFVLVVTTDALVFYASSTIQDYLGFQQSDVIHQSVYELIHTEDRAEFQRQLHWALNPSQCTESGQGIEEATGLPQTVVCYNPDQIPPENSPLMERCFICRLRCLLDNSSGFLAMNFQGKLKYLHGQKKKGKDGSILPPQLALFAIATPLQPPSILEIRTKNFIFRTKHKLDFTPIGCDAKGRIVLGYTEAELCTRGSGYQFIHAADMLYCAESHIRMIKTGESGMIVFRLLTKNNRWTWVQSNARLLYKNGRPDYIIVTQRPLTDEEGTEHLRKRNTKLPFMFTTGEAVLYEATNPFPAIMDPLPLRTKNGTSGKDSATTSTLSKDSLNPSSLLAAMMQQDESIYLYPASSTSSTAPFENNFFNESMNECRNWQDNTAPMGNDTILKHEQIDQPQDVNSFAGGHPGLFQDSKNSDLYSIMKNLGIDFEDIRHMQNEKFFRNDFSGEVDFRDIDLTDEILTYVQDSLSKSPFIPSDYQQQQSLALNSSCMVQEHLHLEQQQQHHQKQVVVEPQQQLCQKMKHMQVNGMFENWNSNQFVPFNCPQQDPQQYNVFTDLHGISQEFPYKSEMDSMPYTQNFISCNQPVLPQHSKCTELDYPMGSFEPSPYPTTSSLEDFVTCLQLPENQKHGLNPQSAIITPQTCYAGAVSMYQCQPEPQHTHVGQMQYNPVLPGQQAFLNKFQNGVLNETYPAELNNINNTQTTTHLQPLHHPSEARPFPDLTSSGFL
From the text: Because the starting dose and any higher dose is expected to be near or at the pharmacologically active range, each subject is required to have blood drawn and tumor biopsies for secondary and exploratory pharmacodynamic endpoints. The blood and tumor tissue samples are used to confirm AHR target engagement. Individual subjects can be exempted from the tumor biopsy requirement upon discussion and prior agreement by the Sponsor. The initial sampling strategy is based on the predicted human pharmacodynamics of this compound. If in the course of evaluating the pharmacodynamics, it is determined that an alternative sampling scheme would be more informative, then that alternative sampling scheme can be implemented if the total amount of blood, blood draws, and tumor biopsies obtained for pharmacodynamics is not increased. Moreover, the total number of samples can be decreased at any time if the initial sampling scheme is considered unnecessarily intensive.
Pharmacodynamic (PD) modulation of AHR target genes were analyzed in a whole blood assay.

AHR [3] = target: T1, AHR; experiment: IL-22 secretion by CD3/CD28 activated human T cells (Meso Scale Discovery); type: cell-based; design: endogenous in cells; conditions: 48 hours
Description: AHR plays a key role in immune cells and its' inhibition is proposed to reverse immune suppression and activate T cells. The ability of Compound A to inhibit AHR-dependent CYP1A1 expression and cytokine production was assessed in primary human T cells. AHR directly regulates the expression of the immune suppressive cytokine IL-22. Human T cells isolated from healthy donor PBMCs were activated with CD3/CD28 tetramer and incubated for 24 hours with Compound A. Cell pellets were processed for RNA isolation and CYP1A1 analysis by quantitative reverse-transcriptase polymerase chain reaction. For the cytokine analysis assay, CD3/CD28 activated T cells were treated with Compound A, and culture supernatants were collected after 48 hours for analysis of IL-22 levels using Meso Scale Discovery V-plex IL-22 plates. Compound A inhibited AHR-dependent gene expression in activated human T cells by decreasing expression of CYP1A1 in a concentration-dependent manner.

AHR [4] = target: T1, AHR; experiment: CYP1B1 gene expression in human whole blood ex vivo, basal and L-kynurenine-induced; type: cell-based; design: endogenous in cells; conditions: Compound A concentrations >0.5 μM, basal and 20 μM L-kynurenine activated, 24 hours, 2 donors
Description: To further examine the effects of Compound A on basal and ligand-activated AHR-dependent gene expression in human immune cells, blood samples from 2 healthy human donors were exposed ex vivo to Compound A in the presence or absence of 20 μM L-kynurenine to activate AHR. After 24 hours, cells were evaluated for CYP1B1 gene expression. In whole blood samples without AHR activation, basal levels of CYP1B1 expression were inhibited by Compound A treatment in both donors (FIG. 30A). […] In both donors, Compound A concentrations >0.5 μM inhibited CYP1B1 gene expression by greater than 50% under basal and ligand activated conditions.

In the case of `CC(C)c1cnn2c(N[C@@H]3CCc4[nH]c5ccccc5c4C3)nc(-c3cncc(F)c3)nc12` [Compound A, (R)—N-(2-(5-fluoropyridin-3-yl)-8-isopropylpyrazolo[1,5-a][1,3,5]triazin-4-yl)-2,3,4,9-tetrahydro-1H-carbazol-3-amine], the “TGI relative to vehicle treated mice” value (CT26.WT; Compound A 10 mg/kg PO QD (alone or with anti-PD-1 10 mg/kg IP twice a week)) was 39.8%, the “TGI relative to vehicle treated mice” value (CT26.WT; Compound A 25 mg/kg PO QD (alone or with anti-PD-1 10 mg/kg IP twice a week)) was 40.9% and the “IDR (intrinsic dissolution rate)” value [1] was 0.85 ug/min*cm^2. For the same compound, the “inhibition of expression of AHR target gene CYP1B1” value (AHR [2]) was “Robust inhibition”, the pIC50 (AHR [3]) was 8.15 and the “inhibition of CYP1B1 gene expression” value (AHR [4]) was “greater than 50%”.
